Test results as given in patent US8865623B2, “Herbicidally active cyclic diones and derivatives thereof, processes for their preparation, compositions, and method of controlling weeds” (Syngenta Limited, priority 2009, dated 2014).

Columns and labels:
Format in all cases: in vivo
[1] = tested on: Echinochloa crus-galli (ECHCG); test: Pre-emergence herbicidal activity, glasshouse pot test; settings: Echinochloa crus-galli, 312 h, Rate 250 g/ha, evaluated after 13 days, read-out: Pre-emergence activity ECHCG (100=total damage to plant; 0=no damage to plant)
Summary of the method: (§1)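 Herbicide damage scored 0–100 at 13 d. Pre-emergence: spray 1 d after sowing; post-emergence: spray after 8 d growth. Formulation acetone/water 50:50, 0.5% Tween 20, aqueous spray.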

[2] = tested on: Avena fatua (AVEFA); test: as above; settings: Avena fatua, 312 h, Rate 250 g/ha, evaluated after 13 days, read-out: Pre-emergence activity AVEFA (100=total damage to plant; 0=no damage to plant)
Summary of the method: as §1

[3] = tested on: Alopecurus myosuroides (ALOMY); test: as above; settings: Alopecurus myosuroides, 312 h, Rate 250 g/ha, evaluated after 13 days, read-out: Pre-emergence activity ALOMY (100=total damage to plant; 0=no damage to plant)
Summary of the method: as §1

[4] = tested on: Lolium perenne (LOLPE); test: as above; settings: Lolium perenne, 312 h, Rate 250 g/ha, evaluated after 13 days, read-out: Pre-emergence activity LOLPE (100=total damage to plant; 0=no damage to plant)
Summary of the method: as §1

[5] = tested on: Echinochloa crus-galli (ECHCG); test: Post-emergence herbicidal activity, glasshouse pot test; settings: Echinochloa crus-galli, 312 h, rate 250 g/ha, evaluated after 13 days, read-out: Post-emergence activity ECHCG (100=total damage to plant; 0=no damage to plant)
Summary of the method: as §1

[6] = tested on: Avena fatua (AVEFA); test: as above; settings: Avena fatua, 312 h, rate 250 g/ha, evaluated after 13 days, read-out: Post-emergence activity AVEFA (100=total damage to plant; 0=no damage to plant)
Summary of the method: as §1

[7] = tested on: Alopecurus myosuroides (ALOMY); test: as above; settings: Alopecurus myosuroides, 312 h, rate 250 g/ha, evaluated after 13 days, read-out: Post-emergence activity ALOMY (100=total damage to plant; 0=no damage to plant)
Summary of the method: as §1

[8] = tested on: Lolium perenne (LOLPE); test: as above; settings: Lolium perenne, 312 h, rate 250 g/ha, evaluated after 13 days, read-out: Post-emergence activity LOLPE (100=total damage to plant; 0=no damage to plant)
Summary of the method: as §1

Compound	pest or weed control at 250 g/ha ([1]; pre-emergence spray) [%]	pest or weed control at 250 g/ha ([2]; pre-emergence spray) [%]	pest or weed control at 250 g/ha ([3]; pre-emergence spray) [%]	pest or weed control at 250 g/ha ([4]; pre-emergence spray) [%]	pest or weed control at 250 g/ha ([5]; glasshouse) [%]	pest or weed control at 250 g/ha ([6]; glasshouse) [%]	pest or weed control at 250 g/ha ([7]; glasshouse) [%]	pest or weed control at 250 g/ha ([8]; glasshouse) [%]	pest or weed control at 250 g/ha ([1]; pre-emergence) [%]	pest or weed control at 250 g/ha ([2]; pre-emergence) [%]	pest or weed control at 250 g/ha ([3]; pre-emergence) [%]	pest or weed control at 250 g/ha ([4]; pre-emergence) [%]	pest or weed control at 250 g/ha [5] [%]	pest or weed control at 250 g/ha [6] [%]	pest or weed control at 250 g/ha [7] [%]	pest or weed control at 250 g/ha [8] [%]
CCc1ccc(Oc2ncc(Cl)cc2C(F)(F)F)cc1C1=C(O)[C@@H]2CC[C@](C)(C1=O)C2(C)C [Example A-329]	100	90	90	100	100	90	80	70								
CCc1ccc(Oc2ccc(C#N)c(Cl)c2)cc1C1=C(O)[C@H]2CC[C@H](C2)C1=O [Example A-330]	100	80	80	100	100	80	70	70								
CCc1ccc(Oc2ccc(C(F)(F)F)cc2Cl)cc1C1=C(O)[C@H]2CC[C@H](C2)C1=O [Example A-331]	100	80	90	100	100	80	80	80								
CCc1ccc(Oc2ccc(C(F)(F)F)c(Cl)c2)cc1C1=C(O)[C@H]2CC[C@H](C2)C1=O [Example A-332]	100	70	80	100	100	100	100	100								
CCc1ccc(Oc2ccc([N+](=O)[O-])c(Cl)c2)cc1C1=C(O)[C@H]2CC[C@H](C2)C1=O [Example A-333]	100	40	50	90	100	70	60	60								
CCc1ccc(Oc2ccc(C(F)(F)F)cn2)cc1C1=C(O)[C@H]2CC[C@H](C2)C1=O [Example A-334]	100	100	100	100	100	100	90	100								
CCc1ccc(Oc2ncc(C(F)(F)F)cc2Cl)cc1C1=C(O)[C@H]2CC[C@H](C2)C1=O [Example A-335]	100	90	100	100	100	90	100	100								
CCc1ccc(Oc2ncc(Cl)cc2Cl)cc1C1=C(O)[C@H]2CC[C@H](C2)C1=O [Example A-336]	100	80	90	100	100	80	90	100								
CCc1ccc(Oc2nc3ccccc3s2)cc1C1=C(O)[C@H]2CC[C@H](C2)C1=O [Example A-337]	100	70	90	100	100	90	90	90								
CCc1ccc(Oc2nc3ccc(Cl)cc3s2)cc1C1=C(O)[C@H]2CC[C@H](C2)C1=O [Example A-338]	100	80	90	100	100	100	100	100								
CCc1ccc(Oc2nc3cc(Cl)ccc3s2)cc1C1=C(O)[C@H]2CC[C@H](C2)C1=O [Example A-339]	100	80	100	90	100	90	100	100								
CCc1ccc(Oc2ccc(C(F)(F)F)c(C#N)c2)cc1C1=C(O)[C@H]2CC[C@H](C2)C1=O [Example A-340]	100	50	80	70	100	80	60	70								
CCc1ccc(Oc2ncc(C(F)(F)F)cc2C(F)(F)F)cc1C1=C(O)[C@H]2CC[C@H](C2)C1=O [Example A-341]	100	90	100	100	100	100	90	100								
CCc1ccc(Oc2nc3ccc([N+](=O)[O-])cc3s2)cc1C1=C(O)[C@H]2CC[C@H](C2)C1=O [Example A-342]	100	60	90	100	100	70	60	60								
CCc1ccc(Oc2nc3ccc(OC)cc3s2)cc1C1=C(O)[C@H]2CC[C@H](C2)C1=O [Example A-343]	100	50	50	100	100	80	50	80								
CCc1ccc(Oc2ccc(C(F)(F)F)cc2[N+](=O)[O-])cc1C1=C(O)[C@H]2CC[C@H](C2)C1=O [Example A-344]	100	30	40	80	90	90	60	70								
CCc1ccc(Oc2nc3c(Cl)cc(Cl)cc3s2)cc1C1=C(O)[C@H]2CC[C@H](C2)C1=O [Example A-345]	100	60	90	100	100	100	80	100								
CCc1ccc(Oc2ncc(Cl)cc2C(F)(F)F)cc1C1=C(O)[C@H]2CC[C@H](C2)C1=O [Example A-346]									100	90	100	100	100	90	70	90
